The test system of this assay is apolipoprotein E-deficient mice. Briefly: Determination of areas of pathological changes appearing in the aorta (atherosclerotic lesions and macrophage area in the aortic valve). The format is in vivo. The following applies: male apolipoprotein E-deficient mice, compounds mixed with diet (Compound A 0.03 w/w %, Compound B 0.0001 w/w %) for 12 weeks, average ± standard error; for Rate of area occupied with macrophage: anti-MOMA-2 positive area relative to lesion area. The text has this:
Determination of Areas of Pathological Changes Appearing in the Aorta
Male apolipoprotein E-deficient mice of 12 weeks of age were divided into 4 groups (10 mice per a group) as follows: control group, group treated with 5-[4-(6-methoxy-1-methylbenzimidazol-2-yl-methoxy)benzyl]thiazolidine-2,4-dione hydrochloride (mixed with diet at a concentration of 0.0001 w/w %, hereinafter referred to as Compound B), group treated with N-(1-octyl-5-carboxymethyl-4,6-dimethylindolin-7-yl)-2,2-dimethylpropanamide hemisulfate (mixed with diet at a concentration of 0.03 w/w %, hereinafter referred to as Compound A), and co-administration group of Compound B (mixed with diet at a concentration of 0.0001 w/w %) and Compound A (mixed with diet at a concentration of 0.03 w/w %). All mice were treated with compounds mixed with diet except the control group for 12 successive weeks. The mice were autopsied in the 12th week and the area of atherosclerotic lesions in the aortic valve and the ratio of the area occupied by macrophages in the same area (positively stained area with anti-MOMA-2) were determined.
(1) Areas of Atherosclerotic Lesions in the Aorta
The aortic valve was stained with elastic-Masson and the area of atherosclerotic lesions in the aortic valve determined. Less-stained areas indicate greater inhibitory effects of the agents on the atherosclerotic lesions as well as suppressive action of the agents against progressive development of atherosclerotic lesions in the aorta.
(2) Rate of Area Occupied by Macrophages
Macrophages in the aortic valve were detected by staining with anti-MOMA-2. Areas occupied by macrophages in the aortic valve were determined and the ratio of the area occupied by macrophages (positively stained areas with anti-MOMA-2) to the area of atherosclerotic lesions in the aortic valve was calculated.
Macrophages are a factor to make plaques unstable. Thus decreases in macrophage accumulation increase plaque stability and are related to amelioration of the atherosclerotic lesions.
The actual measurement value in Table 1 indicates average ± standard error.

Turning to “N-(1-octyl-5-carboxymethyl-4,6-dimethylindolin-7-yl)-2,2-dimethylpropanamide hemisulfate [Compound A]”, the “Rate of area occupied with macrophage” value came out at 13.7 ± 2.2%. Take `COc1ccc2nc(COc3ccc(CC4SC(=O)NC4=O)cc3)n(C)c2c1.Cl` (stereo not drawn) [Compound B, 5-[4-(6-methoxy-1-methylbenzimidazol-2-yl-methoxy)benzyl]thiazolidine-2,4-dione hydrochloride]: the “Rate of area occupied with macrophage” value is recorded as 23.3 ± 4.1%. Further, the “Area of atherosclerotic lesions” value (elastic-Masson stain) is 80616 ± 11611 μm^2.

The values above are taken from patent publication US20050119314A1, “Pharmaceutical composition comprising an ACAT inhibitor and an insulin resistance reducing agent” (SANKYO COMPANY, LIMITED, priority 2002, published 2005).
